According to PMC9477487, “Multitarget drugs as potential therapeutic agents for alzheimer’s disease. A new family of 5-substituted indazole derivatives as cholinergic and BACE1 inhibitors” (Journal of Enzyme Inhibition and Medicinal Chemistry, 2022):

Tests used:
[1] = Oxygen radical absorbance capacity assay (ORAC-FL); details: for ORAC (Oxygen Radical Absorbance Capacity): pH 7.4
Experimental: The ORAC-FL method of Ou et al.[37], partially modified by Dávalos et al.[38], was followed, using a FLUOstar Optima (BMG Labtechnologies GmbH, Offenburg, Germany) with 485 excitation and 520 emission filters. 2,2′-Azobis-(amidinopropane) dihydrochloride (AAPH), (±)-6-hydroxy-2,5,7,8-tetramethylchromane-2-carboxylic acid (trolox) and fluorescein (FL) were purchased from Sigma-Aldrich. The reaction was carried out in 75 mM phosphate buffer (pH 7.4) and the final reaction mixture was 200 µL. […] The mixture was pre-incubated for 30 min at 37 °C and then AAPH solution (25 µL, 240 mM) was added rapidly using a multichannel pipette. The microplate was immediately placed in the reader and the fluorescence was recorded every 90 s. for 90 min. The microplate was automatically shaken prior to each reading. Samples were measured at four different concentrations (10^−1 µM). A blank (FL + AAPH in phosphate buffer) instead of the sample solution and four calibration solutions using trolox (10^−1 µM) was also used in each assay. All of the reaction mixtures were prepared in duplicate and at least three independent assays were performed for each sample. Raw data were exported from the Fluostar optima Software to an Excel sheet for further calculations. Antioxidant curves (fluorescence vs. time) were represented and the area under the curve (AUC) is calculated as: AUC =f1/f0+fi/f0+ … +f34/f0+ (f35/f0) where fo = initial fluorescence reading at 0 min and fi = fluorescence reading at time i. The net AUC is obtained by subtracting the AUC of the blank from that of a sample. The relative Trolox equivalent ORAC value is calculated as: Relative ORAC value =[(AUC sample - AUC blank)/(AUCT rolox - AUC blank)](molarity of trolox/molarity of sample)

BuChE from human serum = molecular target: T1, BuChE from human serum (Homo sapiens, UniProt P06276); assay: In vitro BuChE inhibition assay (Ellman); type: biochemical; details: for IC50: mean ± SEM, 3 experiments, butyrylthiocholine substrate; for BuChE percentage of inhibition at 10 µM / inhibition at 10 µM: 10 µM compound; for inhibition at 10 µM: read-out: BuChE percentage of inhibition at 10 µM
T1 construct: BuChE from human serum (EC 3.1.1.8); purchased Sigma; host or cells: human serum (tissue-derived)
Experimental: (§1) AChE from human erythrocytes (EC 3.1.1.7) (min. 500 units/mg protein in buffered aqueous solution) and BuChE from human serum (EC 3.1.1.8) (3 units/mg protein, lyophilised powder) were purchased from Sigma.
(§2) Compounds were evaluated in 100 mM phosphate buffer pH 8.0 at 30 °C, using acetylthiocholine and butyrylthiocholine (0.4 mM) as substrates, respectively. In both cases, 5,5-dithio-bis(2-nitrobenzoic) acid (DTNB, Ellman’s reagent, 0.2 mM) was used and the values of IC50 were calculated by UV spectroscopy from the absorbance changes at 412 nm. Experiments were performed in triplicate.

BACE1 = molecular target: T2, BACE1 (Homo sapiens, UniProt P56817); assay: BACE1 enzymatic FRET assay; type: biochemical; details: for inhibition at 10 µM: pH 4.5, 10 µM compound, read-out: BACE1 percentage of inhibition at 10 µM; for IC50: pH 4.5, mean ± SEM
T2 construct: purchased Invitrogen
Experimental: The BACE1 ([…]) assay was carried out according to the manufacturer’s described protocol which is available from Invitrogen[36].
Briefly, BACE1 in vitro assays were carried out using fluorescence resonance energy transfer (FRET). An APP-based peptide substrate (rhodamine-EVNLDAEFK-quencher, Km of 20 μM) carrying the Swedish mutation and containing rhodamine as a fluorescence donor and a quencher acceptor at each end was used. The intact substrate is weakly fluorescent and becomes highly fluorescent upon enzymatic cleavage. The assays were conducted in 50 mM sodium acetate buffer, pH 4.5, at a final enzyme concentration of 1 U/mL. Inhibitor screening was performed at 10 μM. The mixture was incubated for 60 min at 25 °C under dark conditions and then stopped with 2.5 M sodium acetate. Fluorescence was measured with a FLUOstar Optima (BMG Labtechnologies GmbH, Offenburg, Germany) microplate reader at 545 nm excitation and 585 nm emission. The assay kit was validated by the manufacturer.

[2] = molecular target: T3, AChE from human erythrocytes (Homo sapiens, UniProt P22303); assay: In vitro AChE inhibition assay (Ellman); type: biochemical; details: for inhibition at 10 µM: 10 µM compound, read-out: AChE percentage of inhibition at 10 µM; for IC50: mean ± SEM, 3 experiments, acetylthiocholine substrate
T3 construct: AChE from human erythrocytes (EC 3.1.1.7); purchased Sigma; host or cells: human erythrocytes (tissue-derived)
Experimental: as §1, §2

BuChE = molecular target: T4, BuChE (Homo sapiens, UniProt P06276); assay: Kinetic study of BuChE inhibition (Lineweaver-Burk plots); type: biochemical; design: key to Type of Inhibition (BuChE): M: mixed
T4 construct: BuChE from human serum (EC 3.1.1.8); purchased Sigma; host or cells: human serum (tissue-derived)
Experimental: To investigate the mechanism of action of the compounds on AChE or BuChE, a kinetic analysis was performed. The experiments were carried out using combinations of four substrate concentrations and three inhibitor concentrations. Double-reciprocal Lineweaver–Burk plots of the data obtained, in which each point is the mean of three different experiments, were analysed.
Competitive inhibitors have the same y-intercept as uninhibited enzymes (since Vmax is unaffected by competitive inhibitors the inverse of Vmax also doesn’t change), but there are different slopes and x-intercepts. Non-competitive inhibition produces plots with the same x-intercept as uninhibited enzyme (Km is unaffected) but different slopes and y-intercepts. Uncompetitive inhibition causes different intercepts on both the y- and x-axes, but the same slope. Mixed inhibitors cause intersects above or below the x-axes.
The Ki, values were determined by fitting the kinetic data to a competitive, non-competitive, or mixed inhibition model by nonlinear regression analysis using GraphPad Prism[35].

Raw 264.7 cells = assay: Cell viability (MTT) of Raw 264.7 cells; type: cell-based; details: 10 µM
Experimental: (§3) Cell viability was measured using the 3-(4,5-Dimethylthiazol-2-yl)-2,5-diphenyltetrazolium bromide (MTT) assay, based on the ability of viable cells to reduce yellow MTT to blue formazan. Briefly, cells cultured in 96-well plates and treated with the indicated compounds for 16 h were incubated with MTT (0.5 mg/ml, 4 h) and subsequently solubilised in DMSO. The extent of reduction of MTT was quantified by absorbance measurement at 595 nm according to the manufacturer’s protocol.

[3] = system: SH-SY5Y human neuroblastoma cells; assay: Amyloid-beta peptide neurotoxicity, neuroprotection in SH-SY5Y cells (MTT); type: cell-based; details: 10 µM compound added 1 h prior to 5 µM Aβ, 24 h
Experimental: SH-SY5Y human neuroblastoma cells were obtained from American Type Culture Collection. Cells were maintained at 37 °C in a 5% CO2 humidified atmosphere in DMEM-Glutamax supplemented with heat-inactivated 10% foetal bovine serum and 1% penicillin/streptomycin. All experiments with Aβ1–42 used DMEM-Glutamax without phenol in the media.
The compounds were dissolved in 100% dimethyl sulphoxide (DMSO) as a 10 mM stock and diluted with culture medium to final concentrations. Aβ1–42 powder (AnaSpec, Inc., San Jose, CA) was dissolved in acetic acid (0.1 M) obtaining a 2 μg/μL stock. Then Aβ1-42 was oligomerised in no phenol red DMEM for 24 h at 37 °C. The final concentration in cells cultures was 5 μM. All dilutions of stock were prepared fresh before addition to the culture medium.
SH-SY5Y cells were treated with 5 μM Aβ1-42 for 24 h and pre-treated or not for 1 h with increasing concentrations of compounds. After treatment, cultures were processed for a cell viability assay using MTT assay.
as §3

T1 sequence (P06276 29-602): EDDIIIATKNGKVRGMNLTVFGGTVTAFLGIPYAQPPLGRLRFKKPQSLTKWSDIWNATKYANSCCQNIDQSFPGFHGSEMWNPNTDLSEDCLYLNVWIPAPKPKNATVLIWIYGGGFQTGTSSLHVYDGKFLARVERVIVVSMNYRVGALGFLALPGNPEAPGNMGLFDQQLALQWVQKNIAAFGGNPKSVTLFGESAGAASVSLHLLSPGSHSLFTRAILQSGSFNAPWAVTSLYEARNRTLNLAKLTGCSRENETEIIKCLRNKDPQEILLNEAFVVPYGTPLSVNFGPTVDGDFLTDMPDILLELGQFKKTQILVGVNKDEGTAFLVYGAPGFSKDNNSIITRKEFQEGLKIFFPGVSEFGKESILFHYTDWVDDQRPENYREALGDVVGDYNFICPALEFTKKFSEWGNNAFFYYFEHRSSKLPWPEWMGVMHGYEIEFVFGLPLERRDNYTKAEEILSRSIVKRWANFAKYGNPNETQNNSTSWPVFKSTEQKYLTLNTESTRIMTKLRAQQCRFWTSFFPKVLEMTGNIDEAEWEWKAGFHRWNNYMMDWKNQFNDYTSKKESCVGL
T3 sequence (P22303 32-617 isoform P22303-2 limits assumed): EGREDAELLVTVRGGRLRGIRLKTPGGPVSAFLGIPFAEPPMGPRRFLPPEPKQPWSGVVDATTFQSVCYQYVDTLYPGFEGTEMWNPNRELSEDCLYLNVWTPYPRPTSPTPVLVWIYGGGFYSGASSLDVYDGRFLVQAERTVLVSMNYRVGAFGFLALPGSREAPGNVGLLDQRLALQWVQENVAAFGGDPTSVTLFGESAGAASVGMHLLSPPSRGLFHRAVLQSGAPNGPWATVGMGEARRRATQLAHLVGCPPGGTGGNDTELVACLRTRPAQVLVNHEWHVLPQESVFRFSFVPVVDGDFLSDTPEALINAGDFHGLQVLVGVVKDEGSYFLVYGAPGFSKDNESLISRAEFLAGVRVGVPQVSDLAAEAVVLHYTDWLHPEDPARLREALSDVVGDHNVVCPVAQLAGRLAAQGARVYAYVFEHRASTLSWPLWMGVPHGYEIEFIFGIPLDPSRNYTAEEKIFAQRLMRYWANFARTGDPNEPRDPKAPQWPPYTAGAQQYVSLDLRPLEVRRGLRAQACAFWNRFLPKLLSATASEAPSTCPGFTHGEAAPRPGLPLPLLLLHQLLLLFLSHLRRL
T2 sequence (P56817 46-501): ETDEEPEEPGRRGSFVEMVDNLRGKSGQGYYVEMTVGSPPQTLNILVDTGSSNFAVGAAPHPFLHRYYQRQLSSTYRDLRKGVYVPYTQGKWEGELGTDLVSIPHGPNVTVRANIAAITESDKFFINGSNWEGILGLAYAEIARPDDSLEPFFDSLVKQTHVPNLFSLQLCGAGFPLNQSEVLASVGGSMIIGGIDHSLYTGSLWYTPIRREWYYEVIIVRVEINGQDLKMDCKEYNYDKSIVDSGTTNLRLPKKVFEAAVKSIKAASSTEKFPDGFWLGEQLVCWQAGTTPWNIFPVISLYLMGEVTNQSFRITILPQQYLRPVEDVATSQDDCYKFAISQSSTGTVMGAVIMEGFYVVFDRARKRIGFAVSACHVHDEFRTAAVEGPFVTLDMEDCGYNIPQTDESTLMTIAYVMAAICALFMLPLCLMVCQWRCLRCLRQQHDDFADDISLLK
T4 sequence (P06276 29-602): as the sequence (P06276 29-602) above

| Compound | ORAC (Oxygen Radical Absorbance Capacity) [1] | IC50 (BuChE from human serum) [µM] | inhibition at 10 µM (BACE1) [%] | inhibition at 10 µM [2] [%] | IC50 [2] [µM] | BuChE inhibition mode of action (in words) (BuChE) | IC50 (BACE1) [µM] | BuChE percentage of inhibition at 10 µM (BuChE from human serum) | inhibition at 10 µM (BuChE from human serum) [%] | Antioxidant properties in relation to Trolox [1] | Cytotoxicity on Raw 264.7 cells viability (Raw 264.7 cells) | Aβ-induced death of SH-SY5Y cells [3] | Type of Inhibition (BuChE) (BuChE) |
| --- | --- | --- | --- | --- | --- | --- | --- | --- | --- | --- | --- | --- | --- |
| Nc1ccc2c(c1)c(OCc1cccc(Cl)c1Cl)nn2Cc1cccc2ccccc12 [Compound 30] | 0.8 ± 0.1 μmol of Trolox equivalents/μmol of tested compound | > 10 | 79 | 36 | > 10 |  |  |  |  |  |  |  |  |
| COc1cc2c(cc1OC)C(=O)C(CC1CCN(Cc3ccccc3)CC1)C2 (stereo not shown) [donepezil, reference compound] |  |  |  |  |  | mixed type |  |  |  |  |  |  |  |
| Nc1ccc2c(c1)c(OCc1cccc3ccccc13)nn2Cc1ccccc1 [Compound 32] | 1.0 ± 0.1 μmol of Trolox equivalents/μmol of tested compound | > 10 |  |  | > 10 |  | > 10 |  |  |  |  |  |  |
| O=C(Nc1ccc2c(c1)c(OCc1ccccc1)nn2Cc1ccccc1)c1cccc(Cl)c1Cl [Compound 7] | 0 μmol of Trolox equivalents/μmol of tested compound | > 10 | 60 |  | 7.6 ± 0.3 |  |  |  |  |  |  |  |  |
| Nc1ccc2c(c1)c(OCc1cccc3ccccc13)nn2Cc1ccc(Cl)c(Cl)c1 [Compound 34] | 0.33 ± 0.05 μmol of Trolox equivalents/μmol of tested compound | > 10 | 72 |  | 3.5 ± 0.6 |  |  | very slight inhibition | 32 |  |  |  |  |
| Nc1ccc2c(c1)c(OCc1ccc3ccccc3c1)nn2Cc1ccc2ccccc2c1 [Compound 28] | 0.3 ± 0.1 μmol of Trolox equivalents/μmol of tested compound | > 10 |  |  | 4.1 ± 0.2 |  | 8.9 ± 0.5 | very slight inhibition | 24 |  |  |  |  |
| CN1CCN(C(=O)Nc2ccc3c(c2)c(OCc2ccccc2)nn3Cc2cccc(Cl)c2Cl)CC1 [Compound 11] | 1.1 ± 0.1 μmol of Trolox equivalents/μmol of tested compound | > 10 |  |  | > 10 |  | 2.8 ± 0.5 |  | 47 | higher than 60% |  |  |  |
| c1ccc(Cn2nc(OCc3cccc4ccccc34)c3cc(NCCCN4CCCCC4)ccc32)cc1 [Compound 1] | 1.1 ± 0.1 μmol of Trolox equivalents/μmol of tested compound | 3.2 ± 0.5 |  | 23 | > 10 |  | 2.7 ± 0.1 |  |  |  | show cytotoxicity | significantly reduced cell death | M |
| CN(C(=O)Nc1ccc2c(c1)c(OCc1cccc3ccccc13)nn2Cc1ccc(Cl)cc1)c1ccccc1 [Compound 9] | 0.6 ± 0.1 μmol of Trolox equivalents/μmol of tested compound | > 10 | 29 |  | > 10 |  | > 10 |  |  | higher than 60% |  |  |  |
| Nc1ccc2c(c1)c(OCc1ccccc1)nn2Cc1cccc(Cl)c1Cl [Compound 29] | 0.7 ± 0.1 μmol of Trolox equivalents/μmol of tested compound | > 10 |  |  | > 10 |  | > 10 |  |  |  |  |  |  |
| Nc1ccc2c(c1)c(OCc1ccc3ccccc3c1)nn2Cc1ccc(Cl)c(Cl)c1 [Compound 31] | 0.63 ± 0.04 μmol of Trolox equivalents/μmol of tested compound | > 10 | 69 |  | 6 ± 0.5 |  |  | very slight inhibition | 30 |  |  |  |  |
| CCN(CC)C(=O)Nc1ccc2c(c1)c(OCc1cccc3ccccc13)nn2Cc1ccccc1 [Compound 8] | 0.9 ± 0.1 μmol of Trolox equivalents/μmol of tested compound | > 10 |  | 29 | > 10 |  | 9.1 ± 0.5 |  |  | higher than 60% |  |  |  |
| Nc1ccc2c(c1)c(OCc1cccc3ccccc13)nn2Cc1ccc(Cl)cc1 [Compound 33] | 1.0 ± 0.1 μmol of Trolox equivalents/μmol of tested compound | > 10 |  |  | > 10 |  | 5.8 ± 0.5 |  |  |  |  |  |  |
| Nc1ccc2c(c1)c(OCc1ccccc1)nn2Cc1ccccc1 [Compound 27, 5-amino-1-benzyl-3-(benzyloxy)indazole] | 0.9 ± 0.1 μmol of Trolox equivalents/μmol of tested compound | > 10 | 2 |  | 8.6 ± 0.5 |  | > 10 | very slight inhibition | 21 |  |  |  |  |
| Clc1cccc(COc2nn(Cc3cccc4ccccc34)c3ccc(NCCCN4CCCCC4)cc23)c1Cl [Compound 5] | 0.8 ± 0.1 μmol of Trolox equivalents/μmol of tested compound | > 10 |  |  | > 10 |  | 2.7 ± 0.1 |  |  |  |  |  |  |
| O=C(Nc1ccc2c(c1)c(OCc1cccc3ccccc13)nn2Cc1ccc(Cl)c(Cl)c1)N(c1ccccc1)c1ccccc1 [Compound 10] | 0.2 ± 0.1 μmol of Trolox equivalents/μmol of tested compound | > 10 | 10 | 28 | > 10 |  | > 10 |  |  |  |  |  |  |
| O=C(Nc1ccc2c(c1)c(OCc1cccc(Cl)c1Cl)nn2Cc1cccc2ccccc12)N1CCCC1 [Compound 12] | 0.5 ± 0.1 μmol of Trolox equivalents/μmol of tested compound | > 10 | 43 |  | > 10 |  | > 10 |  |  |  |  |  |  |
